Patent US12559696B2, “Amine containing aqueous fluids and method of producing same” (Illinois Tool Works Inc., priority 2023, dated 2026)

Assays:
[1] = standard temperature and pressure (STP); cited from earlier work
microbial growth = experiment: Biological testing according to ASTM E2275; assay type: cell-based; settings: 3-amino-4-octanol in solution at 6 total weight percent at higher
Text: The solutions of Examples 1 and 3 and Comparative Examples A and B are subjected to biological testing according to ASTM E2275.

Structure (SMILES): CCCCC(O)C(N)CC (centres unmarked) [3-amino-4-octanol]
- solubility of 3-amino-4-octanol in water [1]: about 4.5 percent by weight
- resistance to microbial growth (microbial growth): enhanced resistant to microbial growth
